The results in this text go back to ChEMBL document CHEMBL4411260, “Dual Inhibition of TYK2 and JAK1 for the Treatment of Autoimmune Diseases: Discovery of (( S)-2,2-Difluorocyclopropyl)((1 R,5 S)-3-(2-((1-methyl-1 H-pyrazol-4-yl)amino)pyrimidin-4-yl)-3,8-diazabicyclo[3.2.1]octan-8-yl)methanone (PF-06700841)” (J Med Chem, 2018).

Type in all cases: ADME, organism-based
Data set [1] can be described thus: Plasma clearance in Sprague-Dawley rat at 1 mg/kg, iv or 3 mg/kg, po.
The nature of data set [2]: Volume of distribution at steady state in Sprague-Dawley rat at 1 mg/kg, iv or 3 mg/kg, po. The note with it: in vivo, read-out: Vdss.
Data set [3] in a line: Oral bioavailability in Sprague-Dawley rat at 3 mg/kg. The note with it: in vivo.
The nature of data set [4]: Cmax in Sprague-Dawley rat at 3 mg/kg, po. Also noted: dose 3 mg/kg, route oral. To be noted: in vivo.
Data set [5] in a line: AUC (0 to infinity) in Sprague-Dawley rat at 3 mg/kg, po. Also noted: dose 3 mg/kg, time infinity, route oral. To be noted: in vivo.
A short description of data set [6]: Cmax in complete freund's adjuvant-induced Lewis rat arthritis model plasma at 3 mg/kg, po qd administered via gavage treated for 7 consecutive days measured after 30 mins post last dose. Set-up: dose 3 mg/kg, route oral. The note with it: in vivo, 0.5 h.
The nature of data set [7]: Cmin in complete freund's adjuvant-induced Lewis rat arthritis model plasma at 3 mg/kg, po qd administered via gavage treated for 7 consecutive days measured after 24 hrs post last dose. The note with it: read-out: Cmin.
Data set [8] is described as follows: Cmax in complete freund's adjuvant-induced Lewis rat arthritis model plasma at 10 mg/kg, po qd administered via gavage treated for 7 consecutive days measured after 30 mins post last dose. Also noted: dose 10 mg/kg, route oral.
Data set [9] can be described thus: Cmin in complete freund's adjuvant-induced Lewis rat arthritis model plasma at 10 mg/kg, po qd administered via gavage treated for 7 consecutive days measured after 24 hrs post last dose. To be noted: read-out: Cmin.
A short description of data set [10]: Cmax in complete freund's adjuvant-induced Lewis rat arthritis model plasma at 30 mg/kg, po qd administered via gavage treated for 7 consecutive days measured after 30 mins post last dose. Also noted: dose 30 mg/kg, route oral.
Data set [11] is described as follows: Cmin in complete freund's adjuvant-induced Lewis rat arthritis model plasma at 30 mg/kg, po qd administered via gavage treated for 7 consecutive days measured after 24 hrs post last dose. To be noted: read-out: Cmin.

What is called bioavailability is the share of a dose that reaches the circulation, judged against a reference dose that is usually intravenous. High values mean good availability, low ones poor availability. As usually defined, the Cmax is the peak of the concentration-time curve. A word on the AUC(0-inf): it is the area under the concentration-time curve extrapolated to infinity. The low end stands for low exposure, the high end for high exposure. In turn, `Cc1ccc(S(=O)(=O)O)cc1.Cn1cc(Nc2nccc(N3CC4CC[C@H](C3)N4C(=O)[C@@H]3CC3(F)F)n2)cn1` (single isomer, unassigned) gave a clearance in data set [1] of 31 mL/min/kg. Also, the Vd in data set [2] worked out at 2 L/kg. Also, the bioavailability in data set [3] stood at 83%. In addition, the Cmax in data set [4] stood at 774 ng/mL; in [6], 3540 nM; in data set [8] it was 11000 nM; in [10], 23900 nM. The AUC(0-inf) in data set [5] is 1340 ng·h/mL. Further, the concentration at 24 h was found to be 22.1 nM in [7], 60 nM in [9] and 60 nM in data set [11].
